Assay results: article PMC8945229, “Development and Biological Characterization of a Novel Selective TrkA Agonist with Neuroprotective Properties against Amyloid Toxicity” (Biomedicines, 2022)

Target: T1, TrkA (Rattus norvegicus, UniProt P35739)
T1 construct: we used PC12 cells, a cell line that express TrkA and p75^NTR; host or cells: PC12
Experiment: TrkA phosphorylation in PC12 cells (IP with TrkA antibody, Western blot against phosphorylated Tyrosine)
Assay type: cell-based
Description: For immunoprecipitation experiments PC12 or HEK293T, cells were used when at 70–80% confluent. […] Cells were then lysed in Pierce™ IP Lysis Buffer (87788, Thermo Fischer Scientific, Waltham, MA, USA) containing proteases (539138, Calbiochem, Darmstadt, Germany) and phosphatase inhibitors (524629, Calbiochem, Darmstadt, Germany). Lysates were then immunoprecipitated overnight at 4 °C with TrkA antibody (1:100, 06-574, Sigma-Aldrich, St. Louis, MO, USA) (Table S1) or p75^NTR antibody (1:100, ab6172, Abcam plc., Cambridge, UK) followed by 4 h incubation with protein G-plus agarose beads (sc-2002, Santa Cruz Biotechnology, Inc., Dallas, TX, USA). Beads were then collected, washed 3X with lysis buffer, resuspended in SDS loading buffer and subjected to Western blot against phosphorylated Tyrosine (1:1000, BAM1676, R&D Systems, Inc., Minneapolis, MN, USA) or Traf6 antibody (1:2000, ab33915, Abcam, plc., Cambridge, UK). Whole cell lysates were subjected to Western blot against TrkA (1:1000, 06-574, Sigma-Aldrich, St. Louis, MO, USA), phosphorylated TrkB (1:1000, ABN1381, Sigma-Aldrich, St. Louis, MO, USA), phosphorylated TrkC (1:1000, STJ90960, St John’s Laboratory, Ltd., London, UK), TrkB (1:1000, 07-225-I, Sigma-Aldrich, St. Louis, MO, USA), TrkC (1:1000, C44H5, Cell Signaling Technology, Danvers, MA, USA), p75 (1:1000, 839701, Biolegend, Inc., San Diego, CA, USA), Traf6 (1:2000, ab33915, Abcam, plc., Cambridge, UK) phosphorylated Akt (1:1000, 9721S, Cell Signaling Technology, Danvers, MA, USA), phosphorylated Erk1/2 (1:1000, 9101S, Cell Signaling Technology, Danvers, MA, USA), total Akt (1:1000, 4691S Cell Signaling Technology, Danvers, MA, USA) and total Erk1/2 (1:1000, 4695S, Cell Signaling Technology, Danvers, MA, USA).

T1 sequence (P35739 33-799): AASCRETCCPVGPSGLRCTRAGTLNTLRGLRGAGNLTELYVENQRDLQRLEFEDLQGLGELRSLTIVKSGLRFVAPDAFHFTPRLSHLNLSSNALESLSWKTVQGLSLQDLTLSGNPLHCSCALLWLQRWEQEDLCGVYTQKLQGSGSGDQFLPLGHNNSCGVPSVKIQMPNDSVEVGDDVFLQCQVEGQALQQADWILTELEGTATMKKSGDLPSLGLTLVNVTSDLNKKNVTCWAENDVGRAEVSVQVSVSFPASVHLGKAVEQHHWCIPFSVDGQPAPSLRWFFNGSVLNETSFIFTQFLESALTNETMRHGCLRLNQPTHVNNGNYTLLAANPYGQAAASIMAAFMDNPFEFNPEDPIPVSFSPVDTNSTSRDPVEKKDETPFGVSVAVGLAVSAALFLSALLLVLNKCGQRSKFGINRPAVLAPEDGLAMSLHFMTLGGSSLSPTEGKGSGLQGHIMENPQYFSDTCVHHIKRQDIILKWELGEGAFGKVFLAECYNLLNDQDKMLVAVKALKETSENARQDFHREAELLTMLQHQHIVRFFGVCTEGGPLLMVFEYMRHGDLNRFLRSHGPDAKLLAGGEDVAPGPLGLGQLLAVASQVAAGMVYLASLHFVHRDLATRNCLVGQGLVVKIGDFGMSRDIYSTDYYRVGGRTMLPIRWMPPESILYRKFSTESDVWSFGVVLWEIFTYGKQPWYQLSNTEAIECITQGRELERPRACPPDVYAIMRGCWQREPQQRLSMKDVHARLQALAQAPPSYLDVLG

CC12CCC(O)CC1=CCC1C2CCC2(C)C1CCC21CC1C=CBr [ENT-A013, (2′R,3S,17S)-2′-(2-Bromovinyl)-5-Androstene-17,1′-Cyclopropan-3-ol]
time TrkA phosphorylation is sustained after treatment (PC12 cells, 10, 30 or 60′ treatment): up to 1 hr | TrkA phosphorylation (PC12 cells, compound 500 nM or NGF 100 ng/mL, 30′): 2.05 ± 0.21 % of control FC
